Experimental data taken from US20230391760A1, “HETEROCYCLIC GLP-1 AGONISTS” (Gasherbrum Bio, Inc., priority 2020, published 2023).
pEC50: −log10 of the molar value.

Biological target: GLP-1 Receptor (Homo sapiens, UniProt P43220)
Assay: GLP-1R agonist cAMP stimulation assay (HEK293/GLP1R/CRE-LUC cells, cAMP dynamic 2 Kit)
Assay type: cell-based
Details: HEK293/CRE-Luc cell line stably expressing the GLP-1 Receptor, 30 min at 37° C.
Summary of the method: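 HEK293 cells stably expressing human GLP-1R with CRE-luciferase, 1000 cells/well in DPBS with 0.5 mM IBMX and 0.1% BSA, treated with compound in 1/2-log serial dilution for 30 min at 37 °C. cAMP then detected by HTRF (cAMP-d2 plus anti-cAMP cryptate), 1 h at room temperature in the dark.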

Chain of GLP-1 Receptor (P43220 24-463, species assumed): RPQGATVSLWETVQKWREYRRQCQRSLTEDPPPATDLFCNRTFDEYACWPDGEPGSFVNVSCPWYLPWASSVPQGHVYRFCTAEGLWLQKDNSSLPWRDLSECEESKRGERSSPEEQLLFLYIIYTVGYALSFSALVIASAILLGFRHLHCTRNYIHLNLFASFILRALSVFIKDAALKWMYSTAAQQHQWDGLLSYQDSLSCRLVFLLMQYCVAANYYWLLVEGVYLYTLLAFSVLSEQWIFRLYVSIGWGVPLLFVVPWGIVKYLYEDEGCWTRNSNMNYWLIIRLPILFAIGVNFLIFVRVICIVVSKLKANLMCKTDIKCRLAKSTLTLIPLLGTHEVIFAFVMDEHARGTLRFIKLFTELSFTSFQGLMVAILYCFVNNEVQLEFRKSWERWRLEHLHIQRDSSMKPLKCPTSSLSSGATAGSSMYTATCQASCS

| pEC50 | Compound |
| --- | --- |
| 10.29 | Cc1nnc(-c2cc3nc(CN4CCC(c5cccc6c5OC(C)(c5ccc(Cl)cn5)O6)CC4)n(C[C@@H]4CCO4)c3cn2)[nH]1 (stereo partly drawn) [Compound 267a, 5-chloro-2-[2-methyl-4-(1-{[6-(5-methyl-4H-1,2,4-triazol-3-yl)-3-{[(2S)-oxetan-2-yl]methyl}-3H-imidazo[4,5-c]pyridin-2-yl]methyl}piperidin-4-yl)-2H-1,3-benzodioxol-2-yl]pyridine] |
| 8.38 | CC1(c2ccc(Cl)cn2)Oc2cccc(C3CCN(Cc4nc5cc(-c6nnc(C7CC7)[nH]6)cnc5n4C[C@@H]4CCO4)CC3)c2O1 (stereo partly drawn) [Compound 268a, 5-chloro-2-[4-(1-{[6-(5-cyclopropyl-4H-1,2,4-triazol-3-yl)-3-{[(2S)-oxetan-2-yl]methyl}-3H-imidazo[4,5-b]pyridin-2-yl]methyl}piperidin-4-yl)-2-methyl-2H-1,3-benzodioxol-2-yl]pyridine] |
| 8.70 | Cc1nnc(-c2cnc3c(c2)nc(CN2CCC(c4cccc5c4OC(C)(c4ccc(Cl)cn4)O5)CC2)n3C[C@@H]2CCO2)[nH]1 (stereo partly drawn) [Compound 269a, 5-chloro-2-[2-methyl-4-(1-{[6-(5-methyl-4H-1,2,4-triazol-3-yl)-3-{[(2S)-oxetan-2-yl]methyl}-3H-imidazo[4,5-b]pyridin-2-yl]methyl}piperidin-4-yl)-2H-1,3-benzodioxol-2-yl]pyridine] |
| 9.07 | CC1(c2ccc(Cl)cn2)Oc2cccc(C3CCN(Cc4nc5cc(-c6nnc(C7CC7)[nH]6)ccc5n4C[C@@H]4CCO4)CC3)c2O1 (stereo partly drawn) [Compound 270a, 2-({4-[2-(5-chloropyridin-2-yl)-2-methyl-2H-1,3-benzodioxol-4-yl]piperidin-1-yl}methyl)-5-(5-cyclopropyl-4H-1,2,4-triazol-3-yl)-1-{[(2S)-oxetan-2-yl]methyl}-1H-1,3-benzodiazole] |
| 9.47 | Cc1nnc(-c2ccc3c(c2)nc(CN2CCC(c4cccc5c4OC(C)(c4ccc(Cl)cn4)O5)CC2)n3C[C@@H]2CCO2)[nH]1 (stereo partly drawn) [Compound 271a, 2-({4-[2-(5-chloropyridin-2-yl)-2-methyl-2H-1,3-benzodioxol-4-yl]piperidin-1-yl}methyl)-5-(5-methyl-4H-1,2,4-triazol-3-yl)-1-{[(2S)-oxetan-2-yl]methyl}-1H-1,3-benzodiazole] |

More lines, now with the values behind:

| Compound | pEC50 |
| --- | --- |
| CC1(c2ccc(C#N)cc2)Oc2cccc(C3CCN(Cc4nc5cc(-c6nnc(C(F)(F)F)[nH]6)ccc5n4C[C@@H]4CCO4)CC3)c2O1 (stereo partly drawn) [Compound 260a, 4-(2-methyl-4-{1-[(1-{[(2S)-oxetan-2-yl]methyl}-5-[5-(trifluoromethyl)-4H-1,2,4-triazol-3-yl]-1H-1,3-benzodiazol-2-yl)methyl]piperidin-4-yl}-2H-1,3-benzodioxol-2-yl)benzonitrile] | 10.51 |
| CC1(c2ccc(C#N)cc2F)Oc2cccc(C3CCN(Cc4nc5cc(-c6nnc(C(F)(F)F)[nH]6)ccc5n4C[C@@H]4CCO4)CC3)c2O1 (stereo partly drawn) [Compound 261a, 3-fluoro-4-(2-methyl-4-{1-[(1-{[(2S)-oxetan-2-yl]methyl}-5-[5-(trifluoromethyl)-4H-1,2,4-triazol-3-yl]-1H-1,3-benzodiazol-2-yl)methyl]piperidin-4-yl}-2H-1,3-benzodioxol-2-yl)benzonitrile] | 10.74 |
| C[C@]1(c2ccc(Cl)cc2F)Oc2cccc(C3CCN(Cc4nc5cc(-c6noc(=O)[nH]6)cnc5n4C[C@@H]4CCO4)CC3)c2O1 [Compound 262, 3-[2-({4-[(2S)-2-(4-chloro-2-fluorophenyl)-2-methyl-2H-1,3-benzodioxol-4-yl]piperidin-1-yl}methyl)-3-{[(2S)-oxetan-2-yl]methyl}-3H-imidazo[4,5-b]pyridin-6-yl]-4,5-dihydro-1,2,4-oxadiazol-5-one] | 10.15 |
| CC1(c2ccc(Cl)cn2)Oc2cccc(C3CCN(Cc4nc5cc(-c6nnc(C7CC7)[nH]6)ncc5n4C[C@@H]4CCO4)CC3)c2O1 (stereo partly drawn) [Compound 266a, 5-chloro-2-[4-(1-{[6-(5-cyclopropyl-4H-1,2,4-triazol-3-yl)-3-{[(2S)-oxetan-2-yl]methyl}-3H-imidazo[4,5-c]pyridin-2-yl]methyl}piperidin-4-yl)-2-methyl-2H-1,3-benzodioxol-2-yl]pyridine] | 10.03 |
